Data on 9 compounds can be found in US10385145B1, “Liquid photo initiating compound and uses of the same” (CHITEC TECHNOLOGY CO., LTD., priority 2018, dated 2019).

Data set [1] can be described thus: Viscosity variation test, 0° C. atmosphere for 7 days. Format: physicochemical. Particulars: for Viscosity, Mixture I, 7 days / Viscosity, Mixture I, Initial: 4 parts by weight photoinitiator in Mixture I; for Viscosity, Mixture I, 7 days / Viscosity, Mixture II, 7 days / Viscosity, Mixture III, 7 days: after 7 days in 0° C. atmosphere; for Viscosity, Mixture I, Initial / Viscosity, Mixture II, Initial / Viscosity, Mixture III, Initial: before exposure; for Viscosity, Mixture II, 7 days / Viscosity, Mixture II, Initial: 4 parts by weight photoinitiator in Mixture II; for Viscosity, Mixture III, 7 days / Viscosity, Mixture III, Initial: 4 parts by weight photoinitiator in Mixture III.

For data set [2] the following is noted: in UV inks; background statement; cited from earlier work.
Data set [3] can be described thus: Photoinitiator dosage test (curing performance). Also noted: key to Curing performance, 1 time of UV light treatment / Curing performance, 2 times of UV light treatment / Curing performance, 3 times of UV light treatment / Curing performance, 4 times of UV light treatment: X: Not tack-free; Δ: Tack-free but not through-cure; ◯: Tack-free and through-cure. Particulars: for Curing performance, 1 time of UV light treatment / Curing performance, 2 times of UV light treatment / Curing performance, 3 times of UV light treatment / Curing performance, 4 times of UV light treatment: 365 nm, 4 W/inch. On the procedure: The commercially available black flexo ink without a photoinitiator was mixed with a photoinitiator to carry out the photo speed performance test, and the effect of the amount of photo initiating compound Ia on the photo speed performance was evaluated. […] The resultant mixture was coated on a PET film with primer (means for improving adhesion) (dry film thickness: 5 μm). The coated PET film was exposed to an UV light (wavelength: 365 nm; 4 W/inch) for curing.

Data set [4] can be described thus: Acute oral toxicity test (LD50), OECD Test Guidelines 423. Format: in vivo. The conditions noted are these: for LD50: acute oral, OECD 423; for Acute oral toxicity assessment: judged from LD50 exceeding 5000 mg/kg.
For data set [5] the following is noted: background statement; cited from earlier work.
A short description of data set [6]: Photo speed performance test. Particulars: 6 parts by weight photoinitiator + 2 parts Chivacure DETX in 100 parts black flexo formulation; wet film 25.15 μm; Fusion F300 D-bulb 300 W/inch. From the text:
The black flexo formulation containing Oligomer 6325-100, EM2411 and carbon black (viscosity: 1750 cP) was mixed with a photoinitiator to carry out the photo speed performance test. […] The resultant mixture was coated on a printable pearlescent film (wet film thickness: 25.15 μm); and the coated printable pearlescent film was exposed to an UV light (Fusion F300, D-bulb, 300 W/inch) for curing.

Data set [7] is described as follows: Solubility test: dissolution in acrylate mixtures I to III. Particulars: one-hour ultrasonication at room temperature. It is filed as physicochemical. How it is done:
Mixtures I to III were prepared according to the composition provided below, and then 6 parts by weight of photoinitiator Trgacure® 369 (available from IGM), photoinitiator R-gen® 919 (available from Chitec Technology Co., Ltd.) or photo initiating compound Ia was added to each of the mixtures I to III.

For data set [8] the following is noted: background statement, relative to Irgacure 369 where stated; cited from earlier work.
For data set [9] the following is noted: background statement; cited from earlier work. The source holds these as a separate data set.
[10] abbreviates: 4 parts by weight photoinitiator.
Setting [11] is: 8 parts by weight photoinitiator.

As a reminder, the LD50 is the dose at which mortality reaches 50%.

Molecules are shown by their SMILES. Like-named read-outs stand apart in the source and are kept apart here.

With `CCC(Cc1ccccc1)(C(=O)c1ccc(N2CCOCC2)cc1)N(C)C` (stereo not drawn) [Irgacure® 369], in [1], the “Viscosity, Mixture I, 7 days” value was 60.4 cP; the “Viscosity, Mixture I, Initial” value came to 52.7 cP; the “Viscosity, Mixture II, 7 days” value is given as “Precipitate”; the “Viscosity, Mixture II, Initial” value stood at 385.0 cP. For the same compound, in data set [1], the “Viscosity, Mixture III, 7 days” value is listed as “Precipitate” and the “Viscosity, Mixture III, Initial” value is 487.0 cP. The “Dosage above which prone to precipitate” value in data set [2] is listed as “over 4 wt %”. Besides, in data set [3] (setting [10]), the “Curing performance, 1 time of UV light treatment” value (shortened to “Curing performance, 1 time”) was “X”; the “Curing performance, 2 times of UV light treatment” value was “X”; the “Curing performance, 3 times of UV light treatment” value is on record as “X”; the “Curing performance, 4 times of UV light treatment” value is “Δ”. The “Dissolution in black flexo ink” value in data set [3] (setting [11]) is “Incomplete dissolution”. In addition, in data set [4], the LD50 is reported as greater than 5000 mg/kg and the “Acute oral toxicity assessment” value is reported as “no acute oral toxicity”. For the same compound, the LD50 in [4] (in vivo, read-out: LD50) is greater than 5000 mg/kg. Further, the Reproductive toxicity result in [5] is “reproductive toxicity”. Further, the Photo speed in [6] stood at 120 m/minute.

For `CCC(Cc1ccc(C)cc1)(C(=O)c1ccc(N2CCOCC2)cc1)N(C)C` (stereo not drawn) [Irgacure® 379], in data set [5], the Reproductive toxicity result is on record as “reproductive toxicity”.

For `CCC1(C)OCCN1c1ccc(C(=O)C(CC)(Cc2ccccc2)N(C)C)cc1` (stereo not drawn) [Photo initiating compound Ia], the “Dissolution, Mixture I” value in data set [7] (6 parts by weight photoinitiator in Mixture I) is on record as “Completely”. In addition, the “Dissolution, Mixture II” value in [7] (6 parts by weight photoinitiator in Mixture II) is listed as “Completely”. Besides, in data set [7] (6 parts by weight photoinitiator in Mixture III), the “Dissolution, Mixture III” value is “Completely”. Further, the “Precipitate after exposure to 0° C. atmosphere for 7 days” value in data set [1] (4 parts by weight in mixtures I to III) was “no precipitate was observed”. Moreover, in [1], the “Viscosity, Mixture I, 7 days” value is reported as 51.2 cP; the “Viscosity, Mixture I, Initial” value is on record as 41.6 cP; the “Viscosity, Mixture II, 7 days” value is recorded as 406.7 cP; the “Viscosity, Mixture II, Initial” value is listed as 351.3 cP. In addition, in data set [1], the “Viscosity, Mixture III, 7 days” value is listed as 547.8 cP and the “Viscosity, Mixture III, Initial” value was 433.1 cP. Moreover, in data set [3] (setting [10]), the “Curing performance, 1 time” value is given as “X”; the “Curing performance, 2 times of UV light treatment” value is “X”; the “Curing performance, 3 times of UV light treatment” value is “X”; the “Curing performance, 4 times of UV light treatment” value is listed as “Δ”. For the same compound, in data set [3] (setting [11]), the “Curing performance, 1 time” value is “Δ”. Besides, the “Solubility in black flexo ink” value in data set [3] (amount increased up to 12 parts by weight) is listed as “no solubility issue was observed”. In data set [4], the LD50 was greater than 5000 mg/kg and the “Acute oral toxicity assessment” value is recorded as “no acute oral toxicity”. In addition, the LD50 in data set [4] (in vivo, read-out: LD50) is greater than 5000 mg/kg. In addition, in [6], the Photo speed was 120 m/minute.

Take `C=CCC(C)(C(=O)c1ccccc1)N1CCOCC1` (stereo not drawn) [compound 93]: the Photo speed entry in [8] was “poor photospeeds”.

With `C=CCC(C)(C(=O)c1ccccc1)N(C)C` (stereo not drawn) [compound 95], in data set [8], the Photo speed result is “poor photospeeds”.

For `CN(C)C(C)(C(=O)c1ccccc1)c1ccccc1` (stereo not drawn) [compound 96], in data set [8], the Photo speed entry was “poor photospeeds”.

For the compound `C=CCC(C(=O)c1ccccc1)(c1ccccc1)N(C)C` (stereo not drawn) [compound 100], in data set [8], the Photo speed result is “poor photospeeds”.

Regarding `CCC(Cc1ccccc1)(C(=O)c1ccc(N(C)CCOC(C)=O)cc1)N(C)C` (stereo not drawn) [compound IIa], the Acute oral toxicity entry in [9] was “high acute oral toxicity”. Moreover, in data set [8], the Photo speed result is listed as “comparable to Irgacure® 369”.

For `CCCCCCNc1ccc(C(=O)C(CC)(Cc2ccccc2)N(C)C)cc1` (stereo not drawn) [compound I], the Photo speed result in data set [8] is “comparable to that of Irgacure® 369”.
